# Where two headings read alike, the source gives them in different places.
# Assays:
# [1] = test system: MDA-MB-453 cells; test: Inhibitory effect on MDA-MB-453 cell proliferation; format: cell-based; details: Homo sapiens; MDA-MB-453, 72 h incubation, Cell Counting-Lite 2.0
# Protocol: (1) Cell plating: First, tumor cells MDA-MB-453 were cultured with corresponding culture medium, the cells were digested with trypsin and centrifuged, then the cells were resuspended and counted, and the cells were adjusted to an appropriate concentration for plating.
# (§1) Co-incubation of the compounds of the present invention and tumor cells: 90 μL of cell suspension was added to 96-well plates respectively. After cell adherence, 10 μL of bioactive molecules (compounds of the present invention) diluted with culture medium were added into the wells of the above plates, and incubated for 72 h.
# (§2) In vitro cell viability detection: After the incubation, 50 μL of Cell Counting-Lite™ 2.0 reagent (Vazyme) was added to each well, shaken and mixed well in the dark, and reacted for 10 minutes before testing. Microplate reader (manufacturer: BMG, Model: PHERA Star-FS) was used for reading. The culture wells without cells were used as the background RLU, and the culture wells with cells but no compound were used as the cell control RLU. Cell inhibition rate=1−(sample RLU−background RLU)/(cell control RLU−background RLU)×100%. The half-inhibition concentration (IC50) of compound was calculated by fitting the curve according to the four-parameter model.
# [2] = test system: NCI-N87 cells; test: Inhibitory effect on NCI-N87 cell proliferation; format: cell-based; details: Homo sapiens, NCI-N87, 72 h, read-out: IC50 (nM), inhibitory activity on NCI-N87 cell proliferation
# Protocol: (1) Cell plating: First, tumor cells NCI-N87 were cultured with corresponding culture medium, the cells were digested with trypsin and centrifuged, then the cells were resuspended and counted, and the cells were adjusted to an appropriate concentration for plating.
# as §1, §2
# [3] = Permeability test in MDCK cell model; format: in vitro ADME; details: dog
# Protocol: (§3) The MDCK cell model was used to evaluate the permeability of the compounds, the LC-MS/MS method was used to determine the concentration of the substance to be tested, and the apparent permeability coefficient (Papp) and efflux ratio were calculated [Efflux ratio=Papp(B→A)/Papp(A→B)].
# (§4) Complete culture medium: 10% fetal bovine serum and 1% penicillin/streptomycin were added to MEM culture medium.
# (§5) Digestive solution: 0.05% trypsin-EDTA.
# (§6) HBSS buffer: HBSS containing Ca^2+, Mg^2+.
# (§7) Permeating solution: HBSS containing 10 mM Hepes, 4% BSA, pH 7.4.
# (§8) Compound stock solution: a certain amount of the compound to be tested was weighed and formulated with DMSO to prepare a 10 mM stock solution.
# (§9) MDCK cells (26th generation) in the logarithmic growth phase were digested and dispersed evenly with 0.05% trypsin-EDTA, and then inoculated into the Transwell chamber at 3*10^5 cells/cm^2, with 200 μL on the A side and 1000 μL on the B side. After inoculation, the medium was changed once every day and the culturing was carried out for 3 to 4 days.
# (§10) The cell culture medium was discarded by pipetting, then washing was carried out three times with the permeating solution. 200 μL of permeating solution was added to A side and 1000 μL of permeating solution was added to B side. A voltage resistance meter was used to measure the cell transmembrane resistance (TEER). After the TEER value of the cells was measured, the permeating solution on both sides was discarded by pipetting, and the solution was added. After 120 minutes, 150 μL of samples were taken from A side and B side, respectively, and frozen at −80° C. before testing. Then, 10 μg/ml Fluorescent Yellow was added to A side. After incubation for 30 minutes, 100 μL of solution at B side was pipetted and added into a 96-well white plate. The fluorescence value was measured at the wavelengths of Ex=485 nm and Em=530 nm using a microplate reader, and the permeance was calculated (which was less than 1%).
# (§11) 80 μL of the compound to be tested was taken, added to 320 μL of acetonitrile solution containing internal standard (30 ng/mL Tolbutamide), vortexed, and centrifuged for 10 min (4000 rpm, 4° C.), and the supernatant was taken for LC-MS/MS analysis.
# (§12) Excel 2013 was used to calculate Papp values and Papp ratio of B side→A side to A side→B side, and the recovery rates of each Control Compound and the compound to be tested were calculated.
# (§13) Apparent permeability coefficient (Papp) of compound was calculated according to the following formula:
# (§14) C0 was the initial concentration (μM) of the drug to be tested at the donor, (dCr/dt)×Vr was the rate (μM/s) at which the drug to be tested appeared at the receiver, Vr was the solution volume (mL) at the receiver, and A was the surface area (cm^2) of polycarbonate membrane.
# (§15) Evaluation criteria: Low permeability: Papp≤0.5 (×10^−6 cm/s) • Medium permeability: 0.5<Papp<2.5 (×10^−6 cm/s) • High permeability: Papp≥2.5 (×10^−6 cm/s)
# (§16) Efflux ratio (ER) was calculated according to Papp:
# (§17) [formula] • wherein, Papp(B→A) was the apparent permeability coefficient of the drug to be tested from the BL (baso-lateral) end to the AP (apical) end, and Papp (A→B) was the apparent permeability coefficient of the drug to be tested from the AP end to the BL end.
# (§18) • Probably being an efflux transporter substrate (Probably): ERa≥2 and ERa/ERi>2 • Likely being an efflux transporter substrate (Likely): ERa≥2 • Unlikely or impossibly being an efflux transporter substrate (Poor or non): ERa<2 • wherein, ERi and ERa were the efflux ratios of the compound to be tested in the presence and absence of P-gp inhibitor, respectively.
# [4] = test system: MDCK cells; test: Permeability test in MDCK cell model; format: in vitro ADME
# Protocol: as §3, §4, §5, §6, §7, §8, §9, §10, §11, §12, §13, §14, §15, §16, §17, §18
# [5] = test system: MDA-MB-231 cells; test: Inhibitory effect on MDA-MB-231 cell proliferation; format: cell-based; details: Homo sapiens; MDA-MB-231, 72 h incubation, Cell Counting-Lite 2.0
# Protocol: (1) Cell plating: First, tumor cells MDA-MB-231 were cultured with corresponding culture medium, the cells were digested with trypsin and centrifuged, then the cells were resuspended and counted, and the cells were adjusted to an appropriate concentration for plating.
# as §1, §2
# [6] = test system: Jeko-1 cells; test: Inhibitory effect on Jeko-1 cell proliferation; format: cell-based; details: Homo sapiens; Jeko-1, 72 h incubation, Cell Counting-Lite 2.0
# Protocol: (1) Cell plating: First, tumor cells Jeko-1 were cultured with corresponding culture medium, the cells were resuspended and counted, and finally the cells were adjusted to an appropriate concentration for plating.
# as §1, §2
# [7] = test system: NCI-H358 cells; test: Inhibitory effect on NCI-H358 cell proliferation; format: cell-based; details: Homo sapiens; NCI-H358, 72 h incubation, Cell Counting-Lite 2.0
# Protocol: (1) Cell plating: First, tumor cells NCI-H358 were cultured with corresponding culture medium, the cells were digested with trypsin and centrifuged, then the cells were resuspended and counted, and the cells were adjusted to an appropriate concentration for plating.
# as §1, §2
# [8] = test system: HT29 cells; test: Inhibitory effect on HT29 cell proliferation; format: cell-based; details: Homo sapiens, HT-29; HT29, 72 h incubation, Cell Counting-Lite 2.0
# Protocol: (1) Cell plating: First, tumor cells HT29 were cultured with corresponding culture medium, the cells were digested with trypsin and centrifuged, then the cells were resuspended and counted, and the cells were adjusted to an appropriate concentration for plating.
# as §1, §2
# [9] = test system: HCC1806 cells; test: Inhibitory effect on HCC1806 cell proliferation; format: cell-based; details: Homo sapiens; HCC1806, 72 h incubation, Cell Counting-Lite 2.0
# Protocol: (1) Cell plating: First, tumor cells HCC1806 were cultured with corresponding culture medium, the cells were digested with trypsin and centrifuged, then the cells were resuspended and counted, and the cells were adjusted to an appropriate concentration for plating.
# as §1, §2
# [10] = test system: NCI-H1975 cells; test: Inhibitory effect on NCI-H1975 cell proliferation; format: cell-based; details: Homo sapiens; NCI-H1975, 72 h incubation, Cell Counting-Lite 2.0
# Protocol: (1) Cell plating: First, tumor cells NCI-H1975 were cultured with corresponding culture medium, the cells were digested with trypsin and centrifuged, then the cells were resuspended and counted, and the cells were adjusted to an appropriate concentration for plating.
# (§19) Co-incubation of the compounds of the present invention and tumor cells: After cell adherence, the culture medium in the cells was removed, and the diluted bioactive molecules (compounds of the present invention) were added into the wells of the above plates, and incubated for 72 h.
# (§20) In vitro cell viability detection: After the incubation, 50 μL of Cell Counting-Lite™ 2.0 reagent (Vazyme) was added to each well, shaken and mixed well in the dark, and reacted for 10 minutes before testing. Microplate reader (manufacturer: BMG, Model: PHERA Star-FS) was used for reading. The Cell Counting-Lite™ without cells was used to obtain the background RLU, and the Cell Counting-Lite™ with cells was used obtain the solvent RLU. Cell inhibition rate=1−(sample RLU−background RLU)/(solvent RLU−background RLU)×100%. The half-inhibition concentration (IC50) of compound was calculated by fitting the curve according to the four-parameter model. RLU: relative light unit.
# [11] = Liver microsome stability test (monkey); format: in vitro ADME, cynomolgus; details: 1 μM
# Protocol: (§21) Liver microsomes were used as an in vitro model to evaluate the metabolic stability of compounds in human and monkey liver microsomes.
# Mixed male cynomolgus liver microsomes: RILD, China
# (§22) The positive compound testosterone or the tested substance (liver microsome solution, 50 μL) was mixed with PBS (25 μL). After pre-incubation (37° C.) for 5 min, NADPH (25 μL) was added to make the final concentration of the positive compound or the tested substance 1 μM, the final concentration of human liver microsomal protein was 0.5 mg/ml, the final concentration of monkey liver microsomal protein was 1 mg/ml, the tested substance group and the positive compound group were incubated for 0 min, 15 min. After being reacted for corresponding time, 300 μL of ice-cold acetonitrile containing internal standard was added to terminate the reaction, vortexed, and stored at −80° C. for later analysis. All incubated samples were double samples.
# (§23) The tested compound was vortexed for 1 min, and centrifuged for 10 min (4° C., 4000 rpm), and 300 μL of the supernatant was taken for LC-MS/MS analysis.
# (§24) Excel software was used to calculate the remaining rate (%) of the drug in primary form in the incubation system: […]
# [12] = test system: HCC1954 cells; test: Inhibitory effect on HCC1954 cell proliferation; format: cell-based; details: Homo sapiens; HCC1954, 72 h incubation, Cell Counting-Lite 2.0
# Protocol: (1) Cell plating: First, tumor cells HCC1954 were cultured with corresponding culture medium, the cells were digested with trypsin and centrifuged, then the cells were resuspended and counted, and the cells were adjusted to an appropriate concentration for plating.
# as §19, §20
# [13] = Liver microsome stability test (human); format: in vitro ADME; details: 1 μM
# Protocol: as §21
# Mixed human liver microsomes: Xenotech, USA
# as §22, §23, §24
# [14] = test system: HCC827 cells; test: Inhibitory effect on HCC827 cell proliferation; format: cell-based; details: Homo sapiens; HCC827, 72 h incubation, Cell Counting-Lite 2.0
# Protocol: (1) Cell plating: First, tumor cells HCC827 were cultured with corresponding culture medium, the cells were digested with trypsin and centrifuged, then the cells were resuspended and counted, and the cells were adjusted to an appropriate concentration for plating.
# as §19, §20
# [15] = pH 7.4, 2.00 μM, Papp(B→A)/Papp(A→B), absence of P-gp inhibitor, read-out: Efflux ratio (ERa)
smiles,measurement,setting,value
"CC[C@@]1(O)C(=O)OCc2c1cc1n(c2=O)Cc2c-1nc1cc(F)c(Cl)cc1c2CNC(=O)CO [Compound 2-1, (S)—N-((9-chloro-4-ethyl-8-fluoro-4-hydroxy-3,14-dioxy-3,4,12,14-tetrahydro-1H-pyrano[3′,4′:6,7]indolizino[1,2-b]quinolin-11-yl)methyl)-2-hydroxyacetamide]",IC50,[1],156 nM
same,IC50,[2],81.6 nM
same,"Papp A→B at 120 min, 2 μM",[3]; pH 7.4,0.52 ×10⁻⁶ cm/s
same,"Papp B→A at 120 min, 2 μM",[3]; pH 7.4,0.42 ×10⁻⁶ cm/s
same,"efflux ratio at 120 min, 2 μM",[3]; [15],0.81
same,Permeability class according to the Papp(A→B) results,[4],medium-permeability
same,Efflux transporter substrate evaluation from efflux ratio,[4]; 2.00 μM,not efflux transporter substrates or were weak efflux transporter substrates
same,IC50,[5],38.5 nM
same,IC50,[6],1.62 nM
same,IC50,[7],121 nM
same,IC50,[8],14.6 nM
same,IC50,[9],8.08 nM
"CC[C@@]1(O)C(=O)OCc2c1cc1n(c2=O)Cc2c-1nc1cc(F)c(Cl)c3c1c2[C@@H](NC(=O)C[C@H](C)O)CC3 [Compound 2-25, (S)—N-((1S,9S)-4-chloro-9-ethyl-5-fluoro-9-hydroxy-10,13-dioxo-2,3,9,10,13,15-hexahydro-1H,12H-benzo[d]pyrano[3′,4′:6,7]indolizino[1,2-b]quinolin-1-yl)-3-hydroxybutyamide]",IC50,[10],29.4 nM
same,"Papp A→B at 120 min, 2 μM",[3]; pH 7.4,0.78 ×10⁻⁶ cm/s
same,"Papp B→A at 120 min, 2 μM",[3]; pH 7.4,3.56 ×10⁻⁶ cm/s
same,"efflux ratio at 120 min, 2 μM",[3]; pH 7.4,4.57
same,Permeability class according to the Papp(A→B) results,[4],medium-permeability
same,Remaining rate (%) Monkey,"[11]; male, monkey, microsomes, 0.25 h",79.5%
same,IC50,[12],171 nM
same,Remaining rate (%) Human,"[13]; human, microsomes, 0.25 h",80.0%
same,IC50,[14],110 nM
"CC[C@@]1(O)C(=O)OCc2c1cc1n(c2=O)Cc2c-1nc1cc(F)c(C)c3c1c2[C@@H](NC(=O)C[C@H](C)O)CC3 [Control Compound 4, reference compound]","efflux ratio at 120 min, 2 μM",[3]; [15],21.7
same,"Papp A→B at 120 min, 2 μM","[3]; pH 7.4, concentration 2.00 μM, 120 minutes, A to B, read-out: Papp A to B",0.24 ×10⁻⁶ cm/s
same,"Papp B→A at 120 min, 2 μM","[3]; pH 7.4, concentration 2.00 μM, 120 minutes, B to A, read-out: Papp B to A",5.25 ×10⁻⁶ cm/s
same,Efflux transporter substrate evaluation from efflux ratio,[4]; 2.00 μM,could be efflux transporter substrates
same,Permeability class according to the Papp(A→B) results,[4]; 2.00 μM,low-permeability
same,Remaining rate (%) Monkey,"[11]; monkey liver microsomes 1 mg/ml, 15 min, NADPH",65.1%
same,Remaining rate (%) Human,"[13]; human liver microsomes 0.5 mg/ml, 15 min, NADPH",64.6%

# Reference: US20260258051A1, “Camptothecin Compound, Preparation Method Therefor and Use Thereof” (SICHUAN KELUN-BIOTECH BIOPHARMACEUTICAL CO., LTD., priority 2022, published 2026)
